The values that follow are results of earlier work, collected in patent US20170273935A1, “CINEOLE-CONTAINING COMPOSITION FOR NASAL APPLICATION” (Maria Clementine Martin Klosterfrau Vertriebsgesellschaft …, priority 2014, published 2017).

Take `CC12CCC(CC1)C(C)(C)O2` [1,8-cineole, 1,3,3-trimethyl-2-oxabicyclo[2.2.2]octane]: the solubility in water entry is “insoluble in water”.
